Experimental data from the supplement of paper PMC6045584.

Columns and labels:
Assay in all cases: area under dose-response curve of surviving fraction (unscaled, Aref=0) (surviving fraction x log10(nM)); higher = more resistant
Details in all cases: exposure time: 5 days; dose range 0.5-1000 nM
[1] = compound: CCn1c(C(=O)N(C2CC2)C2CC2)cc2c3c(ncn3C)c(Nc3cc(C)n(C)n3)nc21
Method in brief: (§1)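 Surviving fractions were fitted by 3-parameter logistic regression in the drc R package to give dose-response survival curves. They came from tumour cell lines treated for five days with eight inhibitor concentrations from 0.5 to 1000 nM and read by CellTiter-Glo luminescence against DMSO-only wells. The area under the curve is the unscaled activity area. It was calculated over log10 dose with Aref = 0.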

[2] = compound: C[C@@H](Oc1cc(-c2cnn(C3CCNCC3)c2)cnc1N)c1c(Cl)ccc(F)c1Cl
Method in brief: as §1

[3] = compound: CN1CCN(c2nc(C3=C(c4c[nH]c5ccccc45)C(=O)NC3=O)c3ccccc3n2)CC1 [SOTRASTAURIN/AEB071]
Method in brief: as §1

[4] = compound: CNC(=O)c1cc(Oc2ccc(NC(=O)Nc3ccc(Cl)c(C(F)(F)F)c3)cc2)ccn1 [SORAFENIB]
Method in brief: as §1

[5] = compound: Cc1nc(Nc2ncc(C(=O)Nc3c(C)cccc3Cl)s2)cc(N2CCN(CCO)CC2)n1 [DASATINIB]
Method in brief: as §1

[6] = compound: O=C(c1cc(Cc2n[nH]c(=O)c3ccccc23)ccc1F)N1CCN(C(=O)C2CC2)CC1 [OLAPARIB]
Method in brief: as §1

[7] = compound: CNCc1ccc(-c2[nH]c3cc(F)cc4c3c2CCNC4=O)cc1
Method in brief: as §1

[8] = compound: Cn1nnc2c(C(N)=O)ncn2c1=O [TEMOZOLOMIDE]
Method in brief: as §1

[9] = compound: Oc1nc(-c2ccc(C(F)(F)F)cc2)nc2c1CSCC2 [XAV-939]
Method in brief: as §1

[10] = compound: COc1cc2ncnc(Nc3ccc(F)c(Cl)c3)c2cc1NC(=O)/C=C/CN1CCCCC1
Method in brief: as §1

[11] = compound: NS(=O)(=O)OC[C@@H]1C[C@@H](n2ccc3c(N[C@H]4CCc5ccccc54)ncnc32)C[C@@H]1O [MLN-4924]
Method in brief: as §1

[12] = compound: C[C@]12CC[C@H](O)CC1=CC[C@@H]1[C@@H]2CC[C@]2(C)C(c3cccnc3)=CC[C@@H]12 [ABIRATERONE]
Method in brief: as §1

[13] = compound: COc1cc2c(Oc3ccc(NC(=O)C4(C(=O)Nc5ccc(F)cc5)CC4)cc3F)ccnc2cc1OCCCN1CCOCC1 [FORETINIB]
Method in brief: as §1

[14] = compound: C[C@@H](Oc1cc(-c2cnn(C3CCNCC3)c2)cnc1N)c1c(Cl)ccc(F)c1Cl [CRIZOTINIB]
Method in brief: as §1

Test System	area under dose-response curve [1]	area under dose-response curve [2]	area under dose-response curve [3]	area under dose-response curve [4]	area under dose-response curve [5]	area under dose-response curve [6]	area under dose-response curve [7]	area under dose-response curve [8]	area under dose-response curve [9]	area under dose-response curve [10]	area under dose-response curve [11]	area under dose-response curve [12]	area under dose-response curve [13]	area under dose-response curve [14]
ZR751 BREAST	2.89	2.77	3.67	3.69	2.99	3.57	3.07	3.24	2.68	2.6				
SKBR3 BREAST	3.41	2.88	3.01	3.35	2.96	3.09	2.69	3.54		1.36	2.05	3.53		
SCC36 HEADNECK	3.52	2.51	3.02	3.74	1.53	2.84	2.8	3.63		1.81	2.11	3.63	3.13	
SCC90 HEADNECK	3.25	3.19	2.96		2.21	3.24	3.19	3.49	3.4	1.84	1.64	4.01		3.27
SUM44 BREAST	3.39	3.1		3.43	3.11	3.02	3.09	4.14	3.52	3.24		3.4	3.91	
NOS1 BONE	3.62	3.13	3.36	3.01	1.42	2.8	2.83	3.67		2.84		3.87	2.58	3.87
NCIH441 LUNG	3.28	3.16	3.4		2.55	3.38	3.19	3.69	3.35	3.01	2.76	3.41	3.13	
ASKA SYNOVIAL	3.49	1.91	3.57	3.67	3.09		2.86	3.76	3.73		2.57	3.92	2.97	2.02
RDES SOFT TISSUE	4.17	2.6	3.42	3.76	2.92	3.41	3.42	3.9	4		2.44	4.04	2.73	
JURKAT HAEMATOPOIETIC AND LYMPHOID TISSUE	3.54	2.75	3.54	3.55	2.79		3.28		3.29	3.18	1.92	3.49	3.02	2.68
NY BONE	3.17	2.97	3.48	3.41	2	3.27		3.45	3.27	3.15	2.47	3.56	2.96	
CHLA90 AUTONOMIC GANGLIA	3.14	2.61	3.28	3.78	2.41		3.28	3.2	3.24	2.74		3.47	3	3.12
143B BONE	3.44	3.2		3.46		3.36				3.27		3.51		
SG28 HEADNECK	3.25			4.1					3.21	1.87		3.46		
SUM159 BREAST		3.42	3.57	3.15	2.84	3.45	3.53	3.44		3.52	3.12	3.35		3.63
MDAMB134 BREAST	3.44	2.51	2.77	3.71	2.13	3.02	2.86	3.51	3.4		2.2	3.48		
SG27 HEADNECK	3.25	3.15	3.57	3.79	2.16	3.27		3.68		3.28	2.95	3.22	3.23	3.57
93VU HEADNECK	3.21	3.15	3.06	3.6	1.68		3.13	3.5	3.51	1.8	2.42	3.9	3.15	3.62
HCC202 BREAST	4.17	4.02				2.74				1.81		3.88		
PCI30 HEADNECK	3.14	3.12	3.42		2.63	3.15	3.14	3.28		1.71	2.6	3.58	3.16	
SG32 HEADNECK	3.55	2.92		4.91	1.29		2.77	4.29	3.64	2.87	2.59		2.95	
CME SYNOVIAL	4.04	3.05	4.01	4.2	2.06	2.56	2.5	4.38	4.09	4.38	2.38	4.4		
HCC1954 BREAST	2.83	1.37	2.92	3.17	0.867	3.08	2.54	3.75	3.2	1.98	2.34			
